In US20260216157A1, “TETRAHYDROTHIOPHENE DERIVATIVE AND USE THEREOF IN MEDICINE” (Haisco Pharmaceutical Group Co., Ltd., priority 2023, published 2026):

Legend:
hNav1.8 = biological target: T1, hNav1.8 (Homo sapiens, UniProt Q9Y5Y9); test: Nav1.8 manual patch clamp test; type: cell-based; settings: CHO cells stably expressing human Nav1.8; whole-cell patch clamp, half-inactivated state; read-out: Inhibitory activity (IC50) against hNav1.8
T1 construct: expressed in transfected cells; host or cells: CHO
T1 sequence (Q9Y5Y9 whole entry): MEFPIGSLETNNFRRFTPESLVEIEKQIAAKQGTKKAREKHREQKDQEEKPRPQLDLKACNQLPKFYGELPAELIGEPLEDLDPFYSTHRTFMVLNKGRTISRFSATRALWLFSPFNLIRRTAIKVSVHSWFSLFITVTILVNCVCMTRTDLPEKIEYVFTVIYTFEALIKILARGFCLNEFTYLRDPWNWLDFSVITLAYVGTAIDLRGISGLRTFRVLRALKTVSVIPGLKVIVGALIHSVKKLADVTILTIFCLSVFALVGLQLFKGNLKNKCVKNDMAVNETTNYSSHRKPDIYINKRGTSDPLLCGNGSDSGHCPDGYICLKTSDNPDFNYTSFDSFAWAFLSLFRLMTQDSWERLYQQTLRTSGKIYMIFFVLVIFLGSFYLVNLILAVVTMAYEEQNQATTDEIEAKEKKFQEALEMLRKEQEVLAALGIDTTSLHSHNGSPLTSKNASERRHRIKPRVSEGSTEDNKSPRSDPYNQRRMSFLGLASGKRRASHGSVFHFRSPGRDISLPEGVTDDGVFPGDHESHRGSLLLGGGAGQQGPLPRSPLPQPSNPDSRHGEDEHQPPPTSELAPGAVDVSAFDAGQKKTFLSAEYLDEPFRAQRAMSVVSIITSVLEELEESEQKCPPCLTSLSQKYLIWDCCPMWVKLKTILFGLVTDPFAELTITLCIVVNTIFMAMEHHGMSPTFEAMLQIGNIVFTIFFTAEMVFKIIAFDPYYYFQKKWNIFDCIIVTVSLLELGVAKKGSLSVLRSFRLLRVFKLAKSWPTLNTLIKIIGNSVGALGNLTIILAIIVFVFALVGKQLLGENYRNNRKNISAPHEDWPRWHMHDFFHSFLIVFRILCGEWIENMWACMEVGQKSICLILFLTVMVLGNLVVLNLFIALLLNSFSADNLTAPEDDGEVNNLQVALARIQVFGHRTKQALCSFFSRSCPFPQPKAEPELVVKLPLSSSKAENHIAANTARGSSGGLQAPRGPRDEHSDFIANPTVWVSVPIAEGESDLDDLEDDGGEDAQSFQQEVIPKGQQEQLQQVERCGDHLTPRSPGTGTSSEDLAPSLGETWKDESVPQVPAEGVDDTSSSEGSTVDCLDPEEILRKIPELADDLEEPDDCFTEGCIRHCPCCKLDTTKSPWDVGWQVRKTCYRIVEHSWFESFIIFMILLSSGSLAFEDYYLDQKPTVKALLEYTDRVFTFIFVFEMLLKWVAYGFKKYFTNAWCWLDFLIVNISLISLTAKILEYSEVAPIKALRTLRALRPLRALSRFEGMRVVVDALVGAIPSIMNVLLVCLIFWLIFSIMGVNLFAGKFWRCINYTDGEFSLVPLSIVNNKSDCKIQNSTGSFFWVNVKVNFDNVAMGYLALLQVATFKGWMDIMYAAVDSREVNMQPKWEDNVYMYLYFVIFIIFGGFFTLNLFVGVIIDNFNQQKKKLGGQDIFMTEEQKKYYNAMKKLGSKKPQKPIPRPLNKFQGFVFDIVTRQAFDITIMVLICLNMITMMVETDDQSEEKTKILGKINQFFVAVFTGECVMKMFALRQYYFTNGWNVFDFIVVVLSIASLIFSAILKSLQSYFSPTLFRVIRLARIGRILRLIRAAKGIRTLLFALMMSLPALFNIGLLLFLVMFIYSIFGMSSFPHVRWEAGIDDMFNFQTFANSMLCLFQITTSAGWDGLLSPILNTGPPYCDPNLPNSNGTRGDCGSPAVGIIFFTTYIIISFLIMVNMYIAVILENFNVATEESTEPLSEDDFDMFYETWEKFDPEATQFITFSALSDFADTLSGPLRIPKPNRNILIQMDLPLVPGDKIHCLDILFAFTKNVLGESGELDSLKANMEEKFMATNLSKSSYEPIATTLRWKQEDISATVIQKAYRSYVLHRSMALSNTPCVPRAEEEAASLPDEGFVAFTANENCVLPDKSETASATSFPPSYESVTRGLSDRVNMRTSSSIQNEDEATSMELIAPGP
Protocol: Nav1.8 Manual Patch Clamp Test
CHO cell lines stably expressing human Nav1.8 were cultured in a Ham's F-12 medium containing 10% fetal bovine serum, 10 μg/mL Blasticidin, 200 μg/mL Hygromycin B and 100 μg/mL Zeocin. The cells were cultured at 37° C. with a carbon dioxide concentration of 5%. The old medium was removed, and the cells were rinsed once with PBS. Then, 1 mL of 0.25%-Trypsin-EDTA solution was added, and the cells were incubated at 37° C. for approximately 1.5 min. Once the cells detached from the bottom of the dish, complete medium pre-warmed to 37° C. was added. The cell suspension was gently triturated with a pipette to dissociate the clumped cells. The cell suspension was transferred to a sterile centrifuge tube and centrifuged at 1000 rpm for 5 min to collect the cells. The cells were seeded into 6 cm cell culture dishes at a density of 2.5×10^5 cells per cell culture dish (final volume: 5 mL) for expansion or maintenance culture. To maintain the electrophysiological activity of the cells, the cell density should not exceed 80%. Before patch clamp testing, the cells were dissociated with 0.25%-Trypsin-EDTA. 6.5×10^3 cells were plated onto coverslips and cultured in 24-well plates (final volume: […]) for 18 hours before detection.
The compound was dissolved in dimethyl sulfoxide (DMSO) and prepared into a 30 mM DMSO stock solution. The stock solution was diluted with the extracellular fluid (140 mM NaCl, 3.5 mM KCl, 1 mM MgCl2·6H2O, 2 mM CaCl2·2H2O, 10 mM D-Glucose, 10 mM HEPES and 1.25 mM NaH2PO4·2H2O; adjusted to pH 7.4 with NaOH) to the test concentration, and the final DMSO concentration of all test samples was 0.1%.
(3) Electrophysiological Test
First, the recording electrodes were pulled from capillary glass tubes by using a microelectrode puller. Then, the electrodes were filled with the intracellular fluid (50 mM CsCl, 10 mM NaCl, 10 mM HEPES, 60 mM CsF and 20 mM EGTA; adjusted to pH 7.2 with CsOH) and mounted onto the microelectrode holder. Under an inverted microscope, the microelectrode manipulator was used to immerse the electrodes into the extracellular fluid, and the pipette resistance (Rpip) was recorded. The electrodes were slowly brought into contact with the cell surface, and negative pressure suction was applied to form a […]. At this point, fast capacitance compensation was performed, and negative pressure was continuously applied to break the cell membrane, forming a whole-cell recording mode. Finally, slow capacitance compensation was performed, and experimental parameters such as series resistance (Rs) were recorded. No electric leakage compensation was applied. When the Nav1.8 current in whole-cell recording was stable, drug administration was initiated, with each drug concentration for approximately 5 min (or until the current was stable). The coverslips spread with the cells were placed in a recording chamber under the inverted microscope. The blank control extracellular fluid and the test compound working solution were perfused through the recording chamber via the gravity-driven perfusion method, thereby acting on the cells, and a peristaltic pump was used to facilitate liquid exchange. The current recorded from cells in compound-free extracellular fluid was used as the control group. All electrophysiological experiments were conducted at room temperature. The inhibition rate of compounds on Nav1.8 was determined by calculating the relative percentage of peak currents generated before and after the cells were treated with the compounds.
The voltage stimulation protocol for whole-cell patch clamp recording of Nav1.8 sodium currents was described as follows. When the whole-cell sealing was formed, the cells were clamped at a voltage of −120 mV. First, the voltage was stepped from −110 mV to −30 mV in 10 mV increments and maintained for 5 s, followed by a depolarizing pulse to 0 mV to obtain a half-inactivation voltage (Vhalf). […]

[1] = Pharmacokinetic test in mice; type: in vivo; settings: C57, mouse, PO 30 mg/kg, plasma
Protocol: Biological Test Example 3: Pharmacokinetic Test in Mice
Experimental animals: C57 mice, 22-25 g, 6 mice/compound.
Experimental design: on the day of the experiment, C57 mice were randomly grouped according to their body weights. The animals were fasted with water available for 12-14 h one day before the administration, and were fed 4 h after the administration.
Before and after the administration, 0.06 mL of blood was taken from the orbit under isoflurane anesthesia, and placed in an EDTAK2 centrifuge tube. Centrifugation was performed at 5000 rpm at 4° C. for 10 min, and the plasma was collected. The blood collection time points for both the intravenous administration group and the intragastric administration group were: 0, 5 min, 15 min, 30 min, 1 h, 2 h, 4 h, 7 h, 24 h and 48 h. Before analysis and detection, all samples were stored at −80° C. The samples were quantitatively analyzed by LC-MS/MS.

CYP1A2 = biological target: T2, CYP1A2 (Homo sapiens, UniProt P05177); test: CYP450 enzyme inhibition test (human liver microsomes); type: in vitro ADME; settings: read-out: IC50 against CYP1A2
T2 construct: co-incubated with human liver microsomes and test compounds; from tissue; host or cells: human liver microsomes
T2 sequence (P05177 1-516): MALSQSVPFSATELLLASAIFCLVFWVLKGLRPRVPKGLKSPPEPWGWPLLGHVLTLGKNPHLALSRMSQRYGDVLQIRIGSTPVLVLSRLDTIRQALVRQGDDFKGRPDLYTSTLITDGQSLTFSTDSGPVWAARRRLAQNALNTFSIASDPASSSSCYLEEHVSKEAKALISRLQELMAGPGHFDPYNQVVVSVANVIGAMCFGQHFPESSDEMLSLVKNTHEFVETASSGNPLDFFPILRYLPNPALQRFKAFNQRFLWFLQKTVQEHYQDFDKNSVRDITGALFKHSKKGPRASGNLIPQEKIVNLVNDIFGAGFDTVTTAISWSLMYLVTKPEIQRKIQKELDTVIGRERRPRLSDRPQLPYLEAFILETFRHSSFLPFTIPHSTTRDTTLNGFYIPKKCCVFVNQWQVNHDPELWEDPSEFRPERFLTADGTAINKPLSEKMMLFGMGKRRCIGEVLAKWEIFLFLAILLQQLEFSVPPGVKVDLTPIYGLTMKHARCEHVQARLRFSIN
Protocol: (§1) Biological Test Example 6: CYP450 Enzyme Inhibition Test The purpose of this study was to evaluate the effect of test compounds on the activity of five isoenzymes (CYP1A2, CYP2C9, CYP2C19, CYP2D6, and CYP3A4) of human liver microsomal cytochrome P450 (CYP) by using an in vitro testing system. The specific probe substrates of CYP450 isoenzymes were co-incubated with human liver microsomes and test compounds at different concentrations, and the reaction was initiated by adding reduced nicotinamide adenine dinucleotide phosphate (NADPH). After the completion of the reaction, the samples were treated and subjected to the liquid chromatography-tandem mass spectrometry (LC-MS/MS) to quantitatively detect metabolites produced by the specific substrates. The changes in CYP enzyme activity were determined, and IC50 values were calculated to evaluate the inhibitory potential of the test compounds on each CYP enzyme subtype.

CYP3A4 = biological target: T3, CYP3A4 (Homo sapiens, UniProt P08684); test: as above; type: in vitro ADME; settings: read-out: IC50 against CYP3A4
T3 construct: co-incubated with human liver microsomes and test compounds; from tissue; host or cells: human liver microsomes
T3 sequence (P08684 whole entry): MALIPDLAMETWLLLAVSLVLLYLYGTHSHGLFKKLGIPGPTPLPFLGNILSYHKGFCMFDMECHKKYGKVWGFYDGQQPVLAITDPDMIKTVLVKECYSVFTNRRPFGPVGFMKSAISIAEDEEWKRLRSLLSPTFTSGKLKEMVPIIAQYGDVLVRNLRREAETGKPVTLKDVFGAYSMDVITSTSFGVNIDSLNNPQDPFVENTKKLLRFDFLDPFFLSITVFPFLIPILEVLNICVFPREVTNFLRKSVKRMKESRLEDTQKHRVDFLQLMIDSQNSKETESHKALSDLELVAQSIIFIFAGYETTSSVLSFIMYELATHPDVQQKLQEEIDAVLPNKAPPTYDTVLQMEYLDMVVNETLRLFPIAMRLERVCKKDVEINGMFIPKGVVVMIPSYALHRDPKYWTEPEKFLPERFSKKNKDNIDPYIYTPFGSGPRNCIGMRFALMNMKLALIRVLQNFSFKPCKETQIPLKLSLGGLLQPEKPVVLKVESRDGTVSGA
Protocol: as §1

CYP2D6 = biological target: T4, CYP2D6 (Homo sapiens, UniProt P10635); test: as above; type: in vitro ADME; settings: read-out: IC50 against CYP2D6
T4 construct: co-incubated with human liver microsomes and test compounds; from tissue; host or cells: human liver microsomes
T4 sequence (P10635 whole entry): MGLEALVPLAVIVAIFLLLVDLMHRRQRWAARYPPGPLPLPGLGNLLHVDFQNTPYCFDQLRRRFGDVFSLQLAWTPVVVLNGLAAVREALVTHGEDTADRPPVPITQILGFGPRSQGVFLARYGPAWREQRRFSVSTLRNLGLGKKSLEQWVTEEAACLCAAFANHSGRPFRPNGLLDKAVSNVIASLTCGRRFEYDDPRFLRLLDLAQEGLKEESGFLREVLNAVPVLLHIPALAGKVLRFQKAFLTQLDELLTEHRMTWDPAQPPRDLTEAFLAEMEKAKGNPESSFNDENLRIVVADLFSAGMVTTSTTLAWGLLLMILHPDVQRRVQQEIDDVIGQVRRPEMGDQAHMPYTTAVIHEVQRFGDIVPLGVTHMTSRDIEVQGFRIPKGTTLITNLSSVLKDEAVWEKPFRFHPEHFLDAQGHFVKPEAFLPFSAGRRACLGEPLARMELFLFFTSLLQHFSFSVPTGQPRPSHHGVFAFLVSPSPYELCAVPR
Protocol: as §1

CYP2C9 = biological target: T5, CYP2C9 (Homo sapiens, UniProt P11712); test: as above; type: in vitro ADME; settings: read-out: IC50 against CYP2C9
T5 construct: co-incubated with human liver microsomes and test compounds; from tissue; host or cells: human liver microsomes
T5 sequence (P11712 whole entry): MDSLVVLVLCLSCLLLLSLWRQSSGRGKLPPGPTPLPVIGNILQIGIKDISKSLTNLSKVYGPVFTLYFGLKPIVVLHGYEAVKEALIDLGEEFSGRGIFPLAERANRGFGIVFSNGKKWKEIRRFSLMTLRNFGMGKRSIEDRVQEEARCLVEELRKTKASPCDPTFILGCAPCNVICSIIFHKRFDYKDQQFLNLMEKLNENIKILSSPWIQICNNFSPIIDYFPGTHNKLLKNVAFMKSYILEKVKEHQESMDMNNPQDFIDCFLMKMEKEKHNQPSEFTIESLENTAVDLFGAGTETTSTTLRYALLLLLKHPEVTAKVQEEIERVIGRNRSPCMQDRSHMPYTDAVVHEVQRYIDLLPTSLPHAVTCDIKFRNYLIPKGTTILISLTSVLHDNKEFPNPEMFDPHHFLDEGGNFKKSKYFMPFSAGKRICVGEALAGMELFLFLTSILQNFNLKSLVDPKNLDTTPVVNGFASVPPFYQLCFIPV
Protocol: as §1

CYP2C19 = biological target: T6, CYP2C19 (Homo sapiens, UniProt P33261); test: as above; type: in vitro ADME; settings: read-out: IC50 against CYP2C19
T6 construct: co-incubated with human liver microsomes and test compounds; from tissue; host or cells: human liver microsomes
T6 sequence (P33261 whole entry): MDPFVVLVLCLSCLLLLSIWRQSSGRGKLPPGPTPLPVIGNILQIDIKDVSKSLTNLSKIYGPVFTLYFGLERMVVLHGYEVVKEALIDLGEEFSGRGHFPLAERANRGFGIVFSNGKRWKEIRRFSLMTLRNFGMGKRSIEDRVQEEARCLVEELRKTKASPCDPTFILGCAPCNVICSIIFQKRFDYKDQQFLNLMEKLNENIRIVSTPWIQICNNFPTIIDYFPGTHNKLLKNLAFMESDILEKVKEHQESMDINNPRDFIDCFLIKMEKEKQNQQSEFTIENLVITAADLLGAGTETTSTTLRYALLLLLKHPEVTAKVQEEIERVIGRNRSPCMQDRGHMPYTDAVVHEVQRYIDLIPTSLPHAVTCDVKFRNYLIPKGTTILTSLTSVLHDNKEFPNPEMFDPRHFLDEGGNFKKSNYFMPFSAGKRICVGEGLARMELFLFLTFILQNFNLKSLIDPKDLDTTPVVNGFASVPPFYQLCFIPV
Protocol: as §1

[2] = tested on: Spinal nerve ligation (SNL)-induced mouse model of neuropathic pain; test: Spinal nerve ligation (SNL)-induced mouse model of neuropathic pain; type: in vivo, C57BL/6J mice; settings: SNL mice, mechanical pain threshold
Protocol: Biological Test Example 8: Spinal Nerve Ligation (SNL)-Induced Mouse Model of Neuropathic Pain
Male C57BL/6J mice purchased from Zhejiang Vital River Laboratory Animal Technology Co., Ltd. were adaptively raised for one week and then the models were established. […]
The mice that were unsuccessful in modeling were eliminated the next day after modeling (marker for successful modeling: mice with their hind paws curled up). […] After grouping, the test compounds (3 and 30 mg/kg) or vehicles (0.5% methylcellulose) were administered intragastrically, and the mechanical pain threshold (MPT) of the mice was measured at different time points after the administration. […]

IC50 (hNav1.8) [µM]	AUC(0-t) [1] [ng·h/mL]	IC50 (CYP1A2) [µM]	IC50 (CYP3A4) [µM]	IC50 (CYP2D6) [µM]	IC50 (CYP2C9) [µM]	IC50 (CYP2C19) [µM]	SMILES	analgesic efficacy (area under the time-MPT curve) ([2]; 3 mg/kg intragastric)	analgesic efficacy (area under the time-MPT curve) ([2]; 30 mg/kg intragastric)
< 0.0001	61600 ± 9480						COc1c(C2CC(C)(C(F)(F)F)SC2C(=O)Nc2ccnc(C(N)=O)c2)ccc(F)c1F (single isomer, unassigned) [Compound 31-1P1]		
	65100 ± 9200	> 30	> 30	> 30	> 30	> 30	COc1c([C@H]2[C@H](C(=O)Nc3ccnc(P(C)(C)=O)c3)S[C@@](C)(C(F)(F)F)[C@H]2C)ccc(F)c1F [Compound 58]		
< 0.0001							COc1c([C@H]2[C@H](C(=O)Nc3ccc(F)c(C(N)=O)c3)S[C@@](C)(C(F)(F)F)[C@H]2C)ccc(F)c1F [Compound 6-2a]	significant analgesic efficacy	significant analgesic efficacy
